# Measurements taken from paper PMC7073229, “Novel Quinoline Compounds Active in Cancer Cells through Coupled DNA Methyltransferase Inhibition and Degradation” (Cancers, 2020).
# What was measured:
# human DNMT1 (hDNMT1) = target: T1, human DNMT1 (hDNMT1) (Homo sapiens, UniProt P26358); test: DNMT1 assay ([methyl-3H]SAM, Flashplate); type: biochemical; settings: mean of at least two independent experiments; read-out: Enzyme Inhibition (EC50 ± SD) hDNMT1
# T1 construct: His; made in house
# Experimental: His-DNMT1 (182 kDa, human) was cloned, expressed, and purified as described by Lee et al.. The DNMT1 assay was performed according to Gros et al.. […] The reaction was incubated 2 h at 37 °C, then 8 µL of the solution are transferred into a streptavidin 96-well scintillant coated Flashplate containing 190 µL of 20 mM SAH in 50 mM Tris–HCl (pH 7.4). The Flashplate is agitated for 1 h at room temperature and washed. The plate is read with TopCount (PerkinElmer). In this assay, the negative and positive controls were defined as wells without enzyme and wells with only DMSO, respectively.
# DNMT1 protein = target: T2, DNMT1 protein (Homo sapiens, UniProt P26358); test: Western blot of DNMT1 protein level in HCT116 cells; type: cell-based; settings: HCT116, 1 µM, 24 h
# T2 construct: endogenous in cells; host or cells: HCT116
# T2 sequence (P26358 whole entry): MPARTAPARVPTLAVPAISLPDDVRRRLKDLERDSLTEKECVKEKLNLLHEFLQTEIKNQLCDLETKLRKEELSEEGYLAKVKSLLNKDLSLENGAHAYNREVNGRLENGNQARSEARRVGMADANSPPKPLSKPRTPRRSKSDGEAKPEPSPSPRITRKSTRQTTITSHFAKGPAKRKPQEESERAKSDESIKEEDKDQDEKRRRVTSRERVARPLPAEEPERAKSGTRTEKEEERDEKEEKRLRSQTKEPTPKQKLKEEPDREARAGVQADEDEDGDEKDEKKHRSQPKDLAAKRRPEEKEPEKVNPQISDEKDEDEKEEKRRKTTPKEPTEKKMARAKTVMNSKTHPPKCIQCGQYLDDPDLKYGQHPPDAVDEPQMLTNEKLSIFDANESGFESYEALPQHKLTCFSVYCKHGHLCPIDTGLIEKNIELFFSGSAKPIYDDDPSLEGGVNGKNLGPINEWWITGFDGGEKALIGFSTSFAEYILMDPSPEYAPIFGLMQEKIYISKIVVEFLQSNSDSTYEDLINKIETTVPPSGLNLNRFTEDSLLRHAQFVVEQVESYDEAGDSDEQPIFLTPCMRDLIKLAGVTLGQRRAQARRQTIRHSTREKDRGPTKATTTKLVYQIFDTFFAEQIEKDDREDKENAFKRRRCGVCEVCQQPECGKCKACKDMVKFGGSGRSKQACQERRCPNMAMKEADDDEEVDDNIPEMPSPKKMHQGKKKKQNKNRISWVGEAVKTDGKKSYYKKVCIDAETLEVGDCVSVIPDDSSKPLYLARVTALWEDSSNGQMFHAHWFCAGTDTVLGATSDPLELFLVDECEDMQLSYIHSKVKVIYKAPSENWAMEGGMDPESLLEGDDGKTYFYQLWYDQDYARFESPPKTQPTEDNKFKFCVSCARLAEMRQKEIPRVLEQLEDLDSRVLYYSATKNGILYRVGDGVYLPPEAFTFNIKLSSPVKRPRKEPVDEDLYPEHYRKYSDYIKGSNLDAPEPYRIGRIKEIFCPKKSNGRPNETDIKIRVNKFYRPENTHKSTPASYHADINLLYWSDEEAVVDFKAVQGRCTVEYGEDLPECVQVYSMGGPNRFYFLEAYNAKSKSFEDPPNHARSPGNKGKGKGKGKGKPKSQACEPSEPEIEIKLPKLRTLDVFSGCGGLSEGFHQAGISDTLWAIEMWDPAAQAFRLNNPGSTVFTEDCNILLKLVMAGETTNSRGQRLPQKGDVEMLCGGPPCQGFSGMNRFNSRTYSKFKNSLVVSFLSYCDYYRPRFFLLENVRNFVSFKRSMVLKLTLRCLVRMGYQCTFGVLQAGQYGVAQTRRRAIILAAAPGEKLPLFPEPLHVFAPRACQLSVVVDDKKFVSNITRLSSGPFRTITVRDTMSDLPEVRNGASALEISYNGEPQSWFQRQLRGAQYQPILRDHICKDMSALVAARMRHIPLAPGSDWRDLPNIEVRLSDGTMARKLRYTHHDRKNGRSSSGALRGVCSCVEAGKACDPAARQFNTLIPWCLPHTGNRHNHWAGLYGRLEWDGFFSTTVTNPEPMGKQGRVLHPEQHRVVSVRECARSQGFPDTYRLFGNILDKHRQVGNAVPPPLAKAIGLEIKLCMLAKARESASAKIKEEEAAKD
# Excerpt: Cells were lysed in Laemmli buffer; subsequently the proteins were resolved by sodium dodecyl sulphate-polyacrylamide gel electrophoresis and transferred to a 0.45 µm nitrocellulose membrane (Bio-Rad Laboratories, Hercules, CA, USA). The following primary antibodies were used for immunoblotting: α-DNMT1 (Novus Biologicals, Littleton, CO, USA). α-DNMT3a (SantaCruz Bio-technologies, CA, USA) and α-GAPDH (Millipore Corp., Bedford, MA USA), used as a loading control. The immune complexes were detected with horseradish peroxidase-conjugated species-specific secondary antiserum (Bio-Rad Laboratories, Hercules, CA, USA) then by enhanced chemiluminescence reaction (Bio-Rad Laboratories, Hercules, CA, USA). Densitometric analysis of protein expression was performed by using the Fiji-Image J image processing package.
# IKKalpha (h) = IKKalpha (h) (Homo sapiens, UniProt O15111); test: Kinase inhibitory assay (panel); type: biochemical; settings: read-out: % inhibition at 10 µM
# Sequence of IKKalpha (h) (O15111 whole entry): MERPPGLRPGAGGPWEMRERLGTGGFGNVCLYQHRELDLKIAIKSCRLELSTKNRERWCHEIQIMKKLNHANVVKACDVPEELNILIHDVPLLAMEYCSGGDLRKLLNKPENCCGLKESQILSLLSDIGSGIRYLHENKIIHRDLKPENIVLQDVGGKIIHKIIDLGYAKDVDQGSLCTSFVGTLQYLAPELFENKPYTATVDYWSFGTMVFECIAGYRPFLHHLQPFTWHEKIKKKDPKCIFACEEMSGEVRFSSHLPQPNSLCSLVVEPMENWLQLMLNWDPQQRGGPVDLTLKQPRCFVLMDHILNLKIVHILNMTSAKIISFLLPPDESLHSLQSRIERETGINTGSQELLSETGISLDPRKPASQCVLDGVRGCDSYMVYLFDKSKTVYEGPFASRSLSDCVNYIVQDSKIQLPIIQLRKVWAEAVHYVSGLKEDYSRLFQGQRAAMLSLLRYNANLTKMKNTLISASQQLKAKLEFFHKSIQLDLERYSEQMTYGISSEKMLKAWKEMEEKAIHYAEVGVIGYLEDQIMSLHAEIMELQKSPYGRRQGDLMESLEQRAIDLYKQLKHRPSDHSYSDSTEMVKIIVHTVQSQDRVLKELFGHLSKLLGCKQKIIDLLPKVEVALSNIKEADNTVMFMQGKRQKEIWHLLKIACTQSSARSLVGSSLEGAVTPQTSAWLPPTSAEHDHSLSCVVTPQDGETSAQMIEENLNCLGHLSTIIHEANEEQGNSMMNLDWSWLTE
# Experimental: (§1) Experimental procedure of kinase inhibitory assays
# (§2) The test compound, reference compound or water (control) were mixed with the enzyme (for the exact amount see table below) in the appropriate buffer. Thereafter, the reaction was initiated by adding the required amount of the appropriate substrate and of ATP, and the mixture is incubated at room temperature (variable reaction time, see table below). For control basal measurements, the enzyme was omitted from the reaction mixture. Following incubation, the reaction was stopped by adding 13 mM
# (§3) EDTA. After 5 min, the proper antibody labelled with europium chelate was added. After 60 more min, the fluorescence transfer was measured at λex=337 nm, λem=620 nm and λem=665 nm using a microplate reader (Envision, Perkin Elmer). The enzyme activity was determined by d ividing the signal measured at 665 nm by that measured at 620 nm (ratio). The results are expressed as a percent inhibition of the control enzyme activity. The standard inhibitory reference compound is staurosporine when not differently indicated (see tabl e below), which has been tested in each experiment at several concentrations to obtain an inhibition curve from which its IC 50 value is calculated.
# (§4) • Assay volume and format: 10 µL in 384-well plate
# (§5) • Compound addition: [100x] solution in solvent then [5x] solution in water • Maximum tolerable DMSO concentration: 1%
# Src kinase (h) = Src kinase (h) (Homo sapiens, UniProt P12931); test: Kinase inhibitory assay (panel); type: biochemical; settings: read-out: % inhibition at 10 µM
# Sequence of Src kinase (h) (P12931 whole entry): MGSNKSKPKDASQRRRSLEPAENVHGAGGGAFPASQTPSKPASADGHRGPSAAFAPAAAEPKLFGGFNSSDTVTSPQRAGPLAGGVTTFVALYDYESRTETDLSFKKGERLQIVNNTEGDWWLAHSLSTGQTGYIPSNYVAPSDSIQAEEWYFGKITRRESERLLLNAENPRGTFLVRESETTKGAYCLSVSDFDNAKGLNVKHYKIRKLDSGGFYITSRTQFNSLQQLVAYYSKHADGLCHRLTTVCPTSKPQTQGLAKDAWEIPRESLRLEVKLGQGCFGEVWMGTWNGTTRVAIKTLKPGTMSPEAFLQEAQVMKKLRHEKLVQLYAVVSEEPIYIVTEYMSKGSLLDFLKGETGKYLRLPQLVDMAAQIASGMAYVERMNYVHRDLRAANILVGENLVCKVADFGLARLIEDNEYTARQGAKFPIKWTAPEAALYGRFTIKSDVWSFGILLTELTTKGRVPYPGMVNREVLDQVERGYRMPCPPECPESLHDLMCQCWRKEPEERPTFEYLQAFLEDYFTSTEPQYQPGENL
# Experimental: as §1, §2, §3, §4, §5
# IRK (h) (InsR) = IRK (h) (InsR) (Homo sapiens, UniProt P06213); test: Kinase inhibitory assay (panel); type: biochemical; settings: read-out: % inhibition at 10 µM
# Experimental: as §1, §2, §3, §4, §5
# PKCbeta 2 (h) = PKCbeta 2 (h) (Homo sapiens, UniProt P05771); test: Kinase inhibitory assay (panel); type: biochemical; settings: read-out: % inhibition at 10 µM
# Sequence of PKCbeta 2 (h) (P05771 1-673 isoform P05771-2): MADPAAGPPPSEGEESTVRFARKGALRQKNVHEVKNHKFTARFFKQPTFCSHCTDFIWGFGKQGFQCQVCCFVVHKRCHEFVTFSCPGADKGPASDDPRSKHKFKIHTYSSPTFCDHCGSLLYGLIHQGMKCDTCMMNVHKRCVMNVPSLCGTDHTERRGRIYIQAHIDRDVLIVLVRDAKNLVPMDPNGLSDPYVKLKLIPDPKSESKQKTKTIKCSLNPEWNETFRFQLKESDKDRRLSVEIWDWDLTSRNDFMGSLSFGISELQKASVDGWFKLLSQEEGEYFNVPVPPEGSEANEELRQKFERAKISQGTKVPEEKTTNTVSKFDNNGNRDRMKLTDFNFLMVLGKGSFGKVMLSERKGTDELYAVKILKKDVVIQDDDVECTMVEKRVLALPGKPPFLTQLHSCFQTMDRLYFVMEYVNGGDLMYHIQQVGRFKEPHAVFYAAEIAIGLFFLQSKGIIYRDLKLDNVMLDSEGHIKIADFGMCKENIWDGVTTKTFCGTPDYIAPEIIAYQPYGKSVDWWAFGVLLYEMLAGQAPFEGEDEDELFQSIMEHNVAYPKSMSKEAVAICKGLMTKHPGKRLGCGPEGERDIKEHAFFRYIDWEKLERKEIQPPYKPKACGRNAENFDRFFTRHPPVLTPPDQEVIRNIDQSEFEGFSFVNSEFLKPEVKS
# Experimental: as §1, §2, §3, §4, §5
# RAF-1 kinase (h) = RAF-1 kinase (h) (Homo sapiens, UniProt P04049); test: Kinase inhibitory assay (panel); type: biochemical; settings: read-out: % inhibition at 10 µM
# Sequence of RAF-1 kinase (h) (P04049 whole entry): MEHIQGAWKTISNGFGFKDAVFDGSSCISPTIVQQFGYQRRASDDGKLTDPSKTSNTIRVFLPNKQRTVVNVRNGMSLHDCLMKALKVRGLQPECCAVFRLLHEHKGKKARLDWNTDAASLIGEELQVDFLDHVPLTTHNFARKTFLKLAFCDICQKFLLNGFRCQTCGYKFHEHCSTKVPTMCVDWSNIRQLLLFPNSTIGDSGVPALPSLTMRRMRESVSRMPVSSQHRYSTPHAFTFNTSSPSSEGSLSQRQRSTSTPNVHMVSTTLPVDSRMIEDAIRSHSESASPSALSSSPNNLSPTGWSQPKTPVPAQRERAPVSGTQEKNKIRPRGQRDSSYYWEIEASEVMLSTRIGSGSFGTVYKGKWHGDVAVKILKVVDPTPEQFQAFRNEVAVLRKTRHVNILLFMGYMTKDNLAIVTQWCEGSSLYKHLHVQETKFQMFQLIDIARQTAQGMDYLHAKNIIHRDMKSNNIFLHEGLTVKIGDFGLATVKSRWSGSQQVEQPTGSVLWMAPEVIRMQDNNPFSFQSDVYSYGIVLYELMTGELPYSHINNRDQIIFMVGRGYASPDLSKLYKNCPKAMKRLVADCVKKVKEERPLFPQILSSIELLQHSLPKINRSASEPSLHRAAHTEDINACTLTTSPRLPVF
# Experimental: as §1, §2, §3, §4, §5
# TRKA (h) = TRKA (h) (Homo sapiens, UniProt P04629); test: Kinase inhibitory assay (panel); type: biochemical; settings: read-out: % inhibition at 10 µM
# Sequence of TRKA (h) (P04629 33-796): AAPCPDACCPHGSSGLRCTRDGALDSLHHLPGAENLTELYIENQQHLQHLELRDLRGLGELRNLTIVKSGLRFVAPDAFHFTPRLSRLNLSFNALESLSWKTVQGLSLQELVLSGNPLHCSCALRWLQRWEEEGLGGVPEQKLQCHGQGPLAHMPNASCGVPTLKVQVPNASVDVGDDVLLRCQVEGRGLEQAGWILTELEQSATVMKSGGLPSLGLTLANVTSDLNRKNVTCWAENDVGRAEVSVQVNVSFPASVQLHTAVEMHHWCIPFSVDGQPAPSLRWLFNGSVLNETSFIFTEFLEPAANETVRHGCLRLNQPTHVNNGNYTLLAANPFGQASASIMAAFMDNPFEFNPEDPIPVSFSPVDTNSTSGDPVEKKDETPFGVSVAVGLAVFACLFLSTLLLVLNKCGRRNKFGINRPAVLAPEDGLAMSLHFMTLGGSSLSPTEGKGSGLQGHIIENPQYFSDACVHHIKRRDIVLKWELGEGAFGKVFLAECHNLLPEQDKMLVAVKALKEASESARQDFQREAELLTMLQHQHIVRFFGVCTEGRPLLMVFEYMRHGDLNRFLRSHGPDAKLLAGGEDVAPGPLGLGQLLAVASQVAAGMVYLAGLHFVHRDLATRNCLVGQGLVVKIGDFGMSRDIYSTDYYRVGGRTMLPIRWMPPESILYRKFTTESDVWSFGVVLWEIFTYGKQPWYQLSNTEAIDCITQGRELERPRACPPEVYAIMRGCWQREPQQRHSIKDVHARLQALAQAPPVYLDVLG
# Experimental: as §1, §2, §3, §4, §5
# SIK (h) = SIK (h) (Homo sapiens, UniProt P57059); test: Kinase inhibitory assay (panel); type: biochemical; settings: read-out: % inhibition at 10 µM
# Experimental: as §1, §2, §3, §4, §5
# GSK3beta (h) = GSK3beta (h) (Homo sapiens, UniProt P49841); test: Kinase inhibitory assay (panel); type: biochemical; settings: read-out: % inhibition at 10 µM
# Experimental: as §1, §2, §3, §4, §5
# c-Met kinase (h) = c-Met kinase (h) (Homo sapiens, UniProt P08581); test: Kinase inhibitory assay (panel); type: biochemical; settings: read-out: % inhibition at 10 µM
# Experimental: as §1, §2, §3, §4, §5
# PAK4 (h) = PAK4 (h) (Homo sapiens, UniProt O96013); test: Kinase inhibitory assay (panel); type: biochemical; settings: read-out: % inhibition at 10 µM
# Experimental: as §1, §2, §3, §4, §5
# PDK1 (h) = PDK1 (h) (Homo sapiens, UniProt O15530); test: Kinase inhibitory assay (panel); type: biochemical; settings: read-out: % inhibition at 10 µM
# Experimental: as §1, §2, §3, §4, §5
# ERK2 (h) (P42mapk) = ERK2 (h) (P42mapk) (Homo sapiens, UniProt P28482); test: Kinase inhibitory assay (panel); type: biochemical; settings: read-out: % inhibition at 10 µM
# Experimental: as §1, §2, §3, §4, §5
# JNK1 (h) = JNK1 (h) (Homo sapiens, UniProt P45983); test: Kinase inhibitory assay (panel); type: biochemical; settings: read-out: % inhibition at 10 µM
# Experimental: as §1, §2, §3, §4, §5
# Lck kinase (h) = Lck kinase (h) (Homo sapiens, UniProt P06239); test: Kinase inhibitory assay (panel); type: biochemical; settings: read-out: % inhibition at 10 µM
# Experimental: as §1, §2, §3, §4, §5
# p38alpha kinase (h) = p38alpha kinase (h) (Homo sapiens, UniProt Q16539); test: Kinase inhibitory assay (panel); type: biochemical; settings: read-out: % inhibition at 10 µM
# Experimental: as §1, §2, §3, §4, §5
# ROCK1 (h) = ROCK1 (h) (Homo sapiens, UniProt Q13464); test: Kinase inhibitory assay (panel); type: biochemical; settings: read-out: % inhibition at 10 µM
# Experimental: as §1, §2, §3, §4, §5
# SGK1 (h) = SGK1 (h) (Homo sapiens, UniProt O00141); test: Kinase inhibitory assay (panel); type: biochemical; settings: read-out: % inhibition at 10 µM
# Experimental: as §1, §2, §3, §4, §5
# Pim2 kinase (h) = Pim2 kinase (h) (Homo sapiens, UniProt Q9P1W9); test: Kinase inhibitory assay (panel); type: biochemical; settings: read-out: % inhibition at 10 µM
# Experimental: as §1, §2, §3, §4, §5
# CDC2/CDK1 (h) (cycB) = CDC2/CDK1 (h) (cycB) (Homo sapiens, UniProt P06493); test: Kinase inhibitory assay (panel); type: biochemical; settings: read-out: % inhibition at 10 µM
# Experimental: as §1, §2, §3, §4, §5
# Abl kinase (h) = Abl kinase (h) (Homo sapiens, UniProt P00519); test: Kinase inhibitory assay (panel); type: biochemical; settings: read-out: % inhibition at 10 µM
# Experimental: as §1, §2, §3, §4, §5
# JAK3 (h) = JAK3 (h) (Homo sapiens, UniProt P52333); test: Kinase inhibitory assay (panel); type: biochemical; settings: read-out: % inhibition at 10 µM
# Experimental: as §1, §2, §3, §4, §5
# PAK2 (h) = PAK2 (h) (Homo sapiens, UniProt Q13177); test: Kinase inhibitory assay (panel); type: biochemical; settings: read-out: % inhibition at 10 µM
# Experimental: as §1, §2, §3, §4, §5
# EphA3 kinase (h) = EphA3 kinase (h) (Homo sapiens, UniProt P29320); test: Kinase inhibitory assay (panel); type: biochemical; settings: read-out: % inhibition at 10 µM
# Experimental: as §1, §2, §3, §4, §5
# AurA/Aur2 kinase (h) = AurA/Aur2 kinase (h) (Homo sapiens, UniProt O14965); test: Kinase inhibitory assay (panel); type: biochemical; settings: read-out: % inhibition at 10 µM
# Experimental: as §1, §2, §3, §4, §5
# T1 sequence (P26358 whole entry): as the sequence (P26358 whole entry) above
smiles,measurement,setting,value
O=C(Nc1cccc(Nc2ccnc3ccccc23)c1)c1ccc(Nc2ccnc3ccccc23)cc1 [Compound 2c],EC50,human DNMT1 (hDNMT1),22 ± 3 µM
O=C(Nc1cccc(Nc2ccnc3ccccc23)c1)c1cccc(Nc2ccnc3ccccc23)c1 [Compound 2b],DNMT1 protein level (western blot),DNMT1 protein,decrease
same,inhibition at 10 µM,IKKalpha (h),70%
same,inhibition at 10 µM,Src kinase (h),94%
same,inhibition at 10 µM,IRK (h) (InsR),86%
same,inhibition at 10 µM,PKCbeta 2 (h),79%
same,inhibition at 10 µM,RAF-1 kinase (h),79%
same,inhibition at 10 µM,TRKA (h),98%
O=C(Nc1cccc(NC(=O)c2ccc(Nc3ccnc4ccccc34)cc2)c1)OCc1ccccc1 [Compound 4c],DNMT1 protein level (western blot),DNMT1 protein,decrease
same,DNMT1 protein level (western blot) with bortezomib,DNMT1 protein; co-treated with bortezomib 10 nM,rescued
O=C(Nc1ccc(Nc2ccnc3ccccc23)cc1)c1cccc(Nc2ccnc3ccccc23)c1 [Compound 2a],EC50,human DNMT1 (hDNMT1),23 ± 4 µM
same,inhibition at 10 µM,SIK (h),22%
same,inhibition at 10 µM,GSK3beta (h),-72%
same,inhibition at 10 µM,c-Met kinase (h),-54%
same,inhibition at 10 µM,PAK4 (h),-17%
same,inhibition at 10 µM,IKKalpha (h),70%
same,inhibition at 10 µM,PDK1 (h),-169%
same,inhibition at 10 µM,Src kinase (h),94%
same,inhibition at 10 µM,ERK2 (h) (P42mapk),9%
same,inhibition at 10 µM,IRK (h) (InsR),86%
same,inhibition at 10 µM,PKCbeta 2 (h),79%
same,inhibition at 10 µM,JNK1 (h),-91%
same,inhibition at 10 µM,Lck kinase (h),23%
same,inhibition at 10 µM,p38alpha kinase (h),-64%
same,inhibition at 10 µM,ROCK1 (h),-61%
same,inhibition at 10 µM,SGK1 (h),28%
same,inhibition at 10 µM,Pim2 kinase (h),-51%
same,inhibition at 10 µM,CDC2/CDK1 (h) (cycB),16%
same,inhibition at 10 µM,Abl kinase (h),0%
same,inhibition at 10 µM,RAF-1 kinase (h),79%
same,inhibition at 10 µM,TRKA (h),98%
same,inhibition at 10 µM,JAK3 (h),-100%
same,inhibition at 10 µM,PAK2 (h),-150%
same,inhibition at 10 µM,EphA3 kinase (h),-57%
same,inhibition at 10 µM,AurA/Aur2 kinase (h),-20%
